Measurements reported in patent US8969516B2, “Method of hydrolysis of peptide bond” (priority 2006, dated 2015).

Assay: MALDI-TOF screening of Ni^2+ dependent hydrolysis in a combinatorial peptide library
Format: physicochemical
Details: CH3CO-Gly-Ala-Thr-X-His-Z-Lys-Phe-Leu-NH2 library, Ni^2+ 2 mM, pH 8.2, 10 mM Tris, score=24/tm
In short: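 Peptide sublibraries CH3CO-Gly-Ala-Ser/Thr-X-His-Z-Lys-Phe-Leu-NH2 (1 mM total) incubated with 2 mM Ni^2+ in 10 mM Tris pH 8.2 at 37 °C and 45 °C. Hydrolysis products, plus loss of substrate signals, detected by MALDI-TOF at 2, 4, 6 and 8 h; residues X and Z scored and ranked.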

Substance	hydrolysis score from MALDI-TOF screening (37° C.)	hydrolysis score from MALDI-TOF screening (45° C.)
Ac-GATLHSKFL-NH2 [TLHS]	0 (a score of 0 if no trace of the product of hydrolysis was seen after 8 hours of incubation)	0 (a score of 0 if no trace of the product of hydrolysis was seen after 8 hours of incubation)
Ac-GATLHTKFL-NH2 [TLHT]	0 (a score of 0 if no trace of the product of hydrolysis was seen after 8 hours of incubation)	0 (a score of 0 if no trace of the product of hydrolysis was seen after 8 hours of incubation)
Ac-GATLHVKFL-NH2 [TLHV]	0 (a score of 0 if no trace of the product of hydrolysis was seen after 8 hours of incubation)	0 (a score of 0 if no trace of the product of hydrolysis was seen after 8 hours of incubation)
Ac-GATLHWKFL-NH2 [TLHW]	3 (a score of 3 for detection at 8 hours)	3 (a score of 3 for detection at 8 hours)
Ac-GATLHYKFL-NH2 [TLHY]	0 (a score of 0 if no trace of the product of hydrolysis was seen after 8 hours of incubation)	0 (a score of 0 if no trace of the product of hydrolysis was seen after 8 hours of incubation)
Ac-GATMHAKFL-NH2 [TMHA]	0 (a score of 0 if no trace of the product of hydrolysis was seen after 8 hours of incubation)	0 (a score of 0 if no trace of the product of hydrolysis was seen after 8 hours of incubation)
Ac-GATMHDKFL-NH2 [TMHD]	0 (a score of 0 if no trace of the product of hydrolysis was seen after 8 hours of incubation)	0 (a score of 0 if no trace of the product of hydrolysis was seen after 8 hours of incubation)
Ac-GATMHEKFL-NH2 [TMHE]	0 (a score of 0 if no trace of the product of hydrolysis was seen after 8 hours of incubation)	0 (a score of 0 if no trace of the product of hydrolysis was seen after 8 hours of incubation)
Ac-GATMHFKFL-NH2 [TMHF]	0 (a score of 0 if no trace of the product of hydrolysis was seen after 8 hours of incubation)	0 (a score of 0 if no trace of the product of hydrolysis was seen after 8 hours of incubation)
Ac-GATMHGKFL-NH2 [TMHG]	0 (a score of 0 if no trace of the product of hydrolysis was seen after 8 hours of incubation)	0 (a score of 0 if no trace of the product of hydrolysis was seen after 8 hours of incubation)
Ac-GATMHHKFL-NH2 [TMHH]	0 (a score of 0 if no trace of the product of hydrolysis was seen after 8 hours of incubation)	0 (a score of 0 if no trace of the product of hydrolysis was seen after 8 hours of incubation)
Ac-GATMHIKFL-NH2 [TMHI]	0 (a score of 0 if no trace of the product of hydrolysis was seen after 8 hours of incubation)	0 (a score of 0 if no trace of the product of hydrolysis was seen after 8 hours of incubation)
Ac-GATMHKKFL-NH2 [TMHK]	0 (a score of 0 if no trace of the product of hydrolysis was seen after 8 hours of incubation)	3 (a score of 3 for detection at 8 hours)
Ac-GATMHLKFL-NH2 [TMHL]	0 (a score of 0 if no trace of the product of hydrolysis was seen after 8 hours of incubation)	0 (a score of 0 if no trace of the product of hydrolysis was seen after 8 hours of incubation)
Ac-GATMHMKFL-NH2 [TMHM]	0 (a score of 0 if no trace of the product of hydrolysis was seen after 8 hours of incubation)	0 (a score of 0 if no trace of the product of hydrolysis was seen after 8 hours of incubation)
Ac-GATMHNKFL-NH2 [TMHN]	0 (a score of 0 if no trace of the product of hydrolysis was seen after 8 hours of incubation)	0 (a score of 0 if no trace of the product of hydrolysis was seen after 8 hours of incubation)
Ac-GATMHPKFL-NH2 [TMHP]	0 (a score of 0 if no trace of the product of hydrolysis was seen after 8 hours of incubation)	0 (a score of 0 if no trace of the product of hydrolysis was seen after 8 hours of incubation)
Ac-GATMHQKFL-NH2 [TMHQ]	0 (a score of 0 if no trace of the product of hydrolysis was seen after 8 hours of incubation)	0 (a score of 0 if no trace of the product of hydrolysis was seen after 8 hours of incubation)
Ac-GATMHSKFL-NH2 [TMHS]	0 (a score of 0 if no trace of the product of hydrolysis was seen after 8 hours of incubation)	0 (a score of 0 if no trace of the product of hydrolysis was seen after 8 hours of incubation)

Substance	hydrolysis score from MALDI-TOF screening (37° C.)	hydrolysis score from MALDI-TOF screening (45° C.)
Ac-GATMHTKFL-NH2 [TMHT]	0 (a score of 0 if no trace of the product of hydrolysis was seen after 8 hours of incubation)	0 (a score of 0 if no trace of the product of hydrolysis was seen after 8 hours of incubation)
Ac-GATMHVKFL-NH2 [TMHV]	0 (a score of 0 if no trace of the product of hydrolysis was seen after 8 hours of incubation)	0 (a score of 0 if no trace of the product of hydrolysis was seen after 8 hours of incubation)
Ac-GATMHWKFL-NH2 [TMHW]	3 (a score of 3 for detection at 8 hours)	3 (a score of 3 for detection at 8 hours)
Ac-GATMHYKFL-NH2 [TMHY]	0 (a score of 0 if no trace of the product of hydrolysis was seen after 8 hours of incubation)	0 (a score of 0 if no trace of the product of hydrolysis was seen after 8 hours of incubation)
Ac-GATNHAKFL-NH2 [TNHA]	0 (a score of 0 if no trace of the product of hydrolysis was seen after 8 hours of incubation)	0 (a score of 0 if no trace of the product of hydrolysis was seen after 8 hours of incubation)
Ac-GATNHDKFL-NH2 [TNHD]	0 (a score of 0 if no trace of the product of hydrolysis was seen after 8 hours of incubation)	0 (a score of 0 if no trace of the product of hydrolysis was seen after 8 hours of incubation)
Ac-GATNHEKFL-NH2 [TNHE]	0 (a score of 0 if no trace of the product of hydrolysis was seen after 8 hours of incubation)	0 (a score of 0 if no trace of the product of hydrolysis was seen after 8 hours of incubation)
Ac-GATNHFKFL-NH2 [TNHF]	0 (a score of 0 if no trace of the product of hydrolysis was seen after 8 hours of incubation)	0 (a score of 0 if no trace of the product of hydrolysis was seen after 8 hours of incubation)
Ac-GATNHGKFL-NH2 [TNHG]	0 (a score of 0 if no trace of the product of hydrolysis was seen after 8 hours of incubation)	0 (a score of 0 if no trace of the product of hydrolysis was seen after 8 hours of incubation)
Ac-GATNHHKFL-NH2 [TNHH]	0 (a score of 0 if no trace of the product of hydrolysis was seen after 8 hours of incubation)	0 (a score of 0 if no trace of the product of hydrolysis was seen after 8 hours of incubation)
Ac-GATNHIKFL-NH2 [TNHI]	0 (a score of 0 if no trace of the product of hydrolysis was seen after 8 hours of incubation)	0 (a score of 0 if no trace of the product of hydrolysis was seen after 8 hours of incubation)
Ac-GATNHKKFL-NH2 [TNHK]	0 (a score of 0 if no trace of the product of hydrolysis was seen after 8 hours of incubation)	0 (a score of 0 if no trace of the product of hydrolysis was seen after 8 hours of incubation)
Ac-GATNHLKFL-NH2 [TNHL]	0 (a score of 0 if no trace of the product of hydrolysis was seen after 8 hours of incubation)	0 (a score of 0 if no trace of the product of hydrolysis was seen after 8 hours of incubation)
Ac-GATNHNKFL-NH2 [TNHN]	0 (a score of 0 if no trace of the product of hydrolysis was seen after 8 hours of incubation)	0 (a score of 0 if no trace of the product of hydrolysis was seen after 8 hours of incubation)
Ac-GATNHPKFL-NH2 [TNHP]	0 (a score of 0 if no trace of the product of hydrolysis was seen after 8 hours of incubation)	0 (a score of 0 if no trace of the product of hydrolysis was seen after 8 hours of incubation)
Ac-GATNHQKFL-NH2 [TNHQ]	0 (a score of 0 if no trace of the product of hydrolysis was seen after 8 hours of incubation)	0 (a score of 0 if no trace of the product of hydrolysis was seen after 8 hours of incubation)
Ac-GATNHRKFL-NH2 [TNHR]	0 (a score of 0 if no trace of the product of hydrolysis was seen after 8 hours of incubation)	3 (a score of 3 for detection at 8 hours)
Ac-GATNHSKFL-NH2 [TNHS]	0 (a score of 0 if no trace of the product of hydrolysis was seen after 8 hours of incubation)	0 (a score of 0 if no trace of the product of hydrolysis was seen after 8 hours of incubation)
